Measurements reported in ChEMBL document CHEMBL5303304, “EUbOPEN Chemogenomics Library - IncuCyte” (2023).

Columns and labels:
Format in all cases: toxicity, cell-based
HEK-293T = test: Incucyte cell viability with HEK293T; conditions: human, 10 µM, compound concentration 10 uM
Fibroblast = test: Incucyte cell viability with human fibroblast; conditions: 10 µM, compound concentration 10 uM
U2OS = test: Incucyte cell viability with U2OS; conditions: human, 10 µM, compound concentration 10 uM
Note: unitless GR value; below 1 slowed growth and below 0 cell loss.

Row | SMILES | Growth Rate (HEK-293T; 0 h, replicate number 1) | Growth Rate (HEK-293T; 0 h, replicate number 2) | Growth Rate (HEK-293T; 6 h, replicate number 1) | Growth Rate (HEK-293T; 6 h, replicate number 2) | Growth Rate (HEK-293T; 12 h, replicate number 1) | Growth Rate (HEK-293T; 12 h, replicate number 2) | Growth Rate (HEK-293T; 18 h, replicate number 1) | Growth Rate (HEK-293T; 18 h, replicate number 2) | Growth Rate (HEK-293T; 24 h, replicate number 1) | Growth Rate (HEK-293T; 24 h, replicate number 2) | Growth Rate (Fibroblast; 0 h, replicate number 1) | Growth Rate (Fibroblast; 12 h, replicate number 2) | Growth Rate (Fibroblast; 18 h, replicate number 2) | Growth Rate (Fibroblast; 24 h, replicate number 2) | Growth Rate (U2OS; 12 h, replicate number 2) | Growth Rate (U2OS; 18 h, replicate number 1) | Growth Rate (U2OS; 24 h, replicate number 1) | Growth Rate (Fibroblast; 0 h, replicate number 2) | Growth Rate (Fibroblast; 6 h, replicate number 2) | Growth Rate (Fibroblast; 24 h, replicate number 1) | other results
1 | O=C(Nc1cc(-c2cn[nH]c2)ccc1N1CCOCC1)c1ccc(-c2ccc3ncccc3c2)o1 | 0.85 | 0.49 | -0.44 | -0.29 | -0.07 | -0.19 | 0.02 | 0.04 | -0.01 | 0.06 | -0.23 | 0.42 | 0.64 | 0.77 | 0.75 | 0.39 | 0.44 | – | – | – | Growth Rate (Fibroblast; 6 h, replicate number 1): -1; Growth Rate (U2OS; 0 h, replicate number 2): -0.65; Growth Rate (U2OS; 24 h, replicate number 2): 0.4
2 | Cc1ccc(NC(=O)c2ccc3cnccc3c2)cc1C(=O)Nc1cnc(Nc2cccc(NC3CCN(C(=O)/C=C/CN(C)C)CC3)c2)nc1 | – | – | -0.97 | -0.98 | -0.87 | -0.77 | -0.65 | -0.56 | -0.54 | -0.39 | 0.35 | -0.71 | -0.42 | -0.3 | 0.68 | 0.33 | 0.27 | -0.14 | -1 | -0.28 | Growth Rate (Fibroblast; 12 h, replicate number 1): -0.99; Growth Rate (Fibroblast; 18 h, replicate number 1): -0.78; Growth Rate (U2OS; 0 h, replicate number 2): -0.97; Growth Rate (U2OS; 6 h, replicate number 1): -0.26; Growth Rate (U2OS; 6 h, replicate number 2): 0.51; Growth Rate (U2OS; 12 h, replicate number 1): 0.17; Growth Rate (U2OS; 18 h, replicate number 2): 0.49; Growth Rate (U2OS; 24 h, replicate number 2): 0.46
3 | Cn1cnc(Cn2ccc3ccc(CNCc4[nH]c5ccccc5c4[C@@H]4NC(=O)c5ccc(O)cc54)cc32)c1 | 0.61 | – | – | – | – | – | – | – | – | – | -0.98 | 0.75 | 0.38 | 0.88 | 0.81 | 0.99 | 0.95 | 0.6 | -0.87 | 0.98 | Growth Rate (Fibroblast; 6 h, replicate number 1): 0.3; Growth Rate (Fibroblast; 18 h, replicate number 1): 0.8; Growth Rate (U2OS; 6 h, replicate number 1): 0.54; Growth Rate (U2OS; 6 h, replicate number 2): 0.95; Growth Rate (U2OS; 12 h, replicate number 1): 0.8; Growth Rate (U2OS; 18 h, replicate number 2): 0.85
4 | CN(C)C/C=C/C(=O)Nc1ccc(C(=O)Nc2cccc(Nc3ncc(Cl)c(-c4c[nH]c5ccccc45)n3)c2)cc1 | – | -0.53 | – | – | – | – | – | – | – | – | – | – | – | 0.7 | 0.57 | 0.29 | 0.16 | – | – | – | Growth Rate (U2OS; 0 h, replicate number 1): -1; Growth Rate (U2OS; 18 h, replicate number 2): 0.55; Growth Rate (U2OS; 24 h, replicate number 2): 0.28
5 | COc1cc(-c2cc([C@H](O)C3CC3)n3ncnc(N)c23)ccc1CO | – | – | -0.7 | -0.8 | 0.16 | 0.26 | 0.62 | 0.76 | 0.74 | 0.87 | – | – | – | 0.98 | 0.85 | – | 0.8 | 0.98 | – | – | Growth Rate (U2OS; 18 h, replicate number 2): 0.89; Growth Rate (U2OS; 24 h, replicate number 2): 0.91
6 | COc1cc2nc(C)nc(N[C@H](C)c3cc(N)cc(C(F)(F)F)c3)c2cc1O[C@H]1CCOC1 | – | – | 0.91 | – | 0.88 | – | – | – | – | – | -1 | 0.03 | 0.65 | 0.88 | – | 0.93 | 0.83 | – | -0.84 | – | Growth Rate (Fibroblast; 6 h, replicate number 1): 0.72; Growth Rate (U2OS; 0 h, replicate number 1): 0.75; Growth Rate (U2OS; 6 h, replicate number 1): 0.51; Growth Rate (U2OS; 6 h, replicate number 2): 0.96
7 | CS(=O)(=O)NC(=O)CCC/C=C\C[C@H]1C(=O)C[C@@H](O)[C@@H]1/C=C/[C@@H](O)COc1ccccc1 [SULPROSTONE] | 0.99 | 0.72 | – | 0.91 | 0.92 | – | 0.99 | – | – | – | -1 | 0.39 | 0.47 | 0.63 | 0.91 | 0.83 | 0.87 | -0.81 | 0.85 | 0.79 | Growth Rate (Fibroblast; 6 h, replicate number 1): 0.27; Growth Rate (Fibroblast; 12 h, replicate number 1): 0.85; Growth Rate (Fibroblast; 18 h, replicate number 1): 0.95; Growth Rate (U2OS; 0 h, replicate number 1): 0.72; Growth Rate (U2OS; 0 h, replicate number 2): 0.8; Growth Rate (U2OS; 6 h, replicate number 1): 0.89; Growth Rate (U2OS; 6 h, replicate number 2): 0.91; Growth Rate (U2OS; 12 h, replicate number 1): 0.97; Growth Rate (U2OS; 24 h, replicate number 2): 0.94
8 | CC(C)(C)OC(=O)CN(Cc1ccc(Cl)cc1)Cc1ccc([N+](=O)[O-])s1 [GSK-4112] | 0.04 | 0.51 | 0.86 | 0.58 | 0.78 | 0.91 | 0.76 | 0.75 | – | 0.92 | – | 0.06 | 0.06 | 0.19 | – | 0.94 | 0.95 | – | -0.08 | 0.72 | Growth Rate (Fibroblast; 6 h, replicate number 1): 0.7; Growth Rate (Fibroblast; 12 h, replicate number 1): 0.71; Growth Rate (Fibroblast; 18 h, replicate number 1): 0.74; Growth Rate (U2OS; 12 h, replicate number 1): 0.82
9 | Cc1cccc([C@H]2CC[C@@H](N3CCN(c4cccnc4)CC3)CC2)c1.O=C(O)C(F)(F)F.O=C(O)C(F)(F)F | 0.98 | – | – | 0.45 | – | 0.66 | – | 0.73 | – | 0.79 | – | – | – | 0.94 | – | 0.97 | 0.93 | -0.88 | -0.32 | 0.58 | Growth Rate (Fibroblast; 6 h, replicate number 1): -0.37; Growth Rate (U2OS; 0 h, replicate number 2): -0.63; Growth Rate (U2OS; 12 h, replicate number 1): 1
10 | O=S1(=O)NCN(C2CC2)c2ccc(F)cc21 | 0.98 | 0.78 | – | 0.62 | – | – | – | – | – | – | 0.5 | – | – | 0.91 | – | 0.99 | 0.9 | 0.39 | – | 0.6 | Growth Rate (Fibroblast; 18 h, replicate number 1): -0.11; Growth Rate (U2OS; 0 h, replicate number 1): 0.05; Growth Rate (U2OS; 6 h, replicate number 1): 0.68; Growth Rate (U2OS; 6 h, replicate number 2): 0.82; Growth Rate (U2OS; 18 h, replicate number 2): 0.88; Growth Rate (U2OS; 24 h, replicate number 2): 0.93
11 | COc1ccc(CC[C@@H](OC(=O)[C@@H]2CCCCN2C(=O)[C@H](c2cc(OC)c(OC)c(OC)c2)C2CCCCC2)c2cccc(OCCN3CCOCC3)c2)cc1OC | – | -0.44 | – | – | – | 0.38 | 0.94 | 0.26 | 0.27 | 0.24 | -1 | 0.99 | – | – | 0.8 | – | – | – | – | 0.97 | Growth Rate (U2OS; 0 h, replicate number 1): -1; Growth Rate (U2OS; 0 h, replicate number 2): -0.99; Growth Rate (U2OS; 6 h, replicate number 2): 0.91; Growth Rate (U2OS; 18 h, replicate number 2): 0.78; Growth Rate (U2OS; 24 h, replicate number 2): 0.73
12 | Cc1ncsc1-c1ccc(CNC(=O)[C@@H]2C[C@@H](O)CN2C(=O)[C@@H](NC(=O)C2(F)CC2)C(C)(C)C)c(OCCOc2ccc(CN3CCN(c4cc(-c5ccccc5O)nnc4N)CC3)cc2)c1 | -1 | – | – | – | – | – | – | – | – | – | – | – | – | – | – | – | – | -1 | – | – | –
13 | CCN(CC)C(=O)C1CN2CCc3cc(OC)c(OC)cc3C2CC1OC(C)=O (stereo not given) [BENZQUINAMIDE] | 0.39 | – | – | 0.7 | – | 0.59 | – | 0.61 | – | 0.87 | – | 1 | 0.6 | 0.97 | – | – | – | – | -0.43 | – | –
14 | COc1cc(C(=O)NCCOCCOCCOCCC(=O)Nc2cccc3c2C(=O)N(C2CCC(=O)NC2=O)C3=O)ccc1Nc1ncc(C(F)(F)F)c(Oc2cccc3c2C(=O)CC3)n1 (stereo not given) | -0.87 | -0.99 | 0.89 | – | 0.57 | – | 0.71 | 0.69 | 0.61 | 0.74 | – | 0.65 | – | – | – | – | – | 0.45 | – | – | –
15 | N=C(N)Nc1cc(C2CCNCC2)cc(C(F)(F)F)c1.O=C(O)C(F)(F)F.O=C(O)C(F)(F)F | 0.85 | -0.14 | 0.69 | – | 0.91 | – | 0.98 | – | 0.96 | – | – | – | – | – | – | – | – | -1 | – | 0.99 | –
16 | Cc1cccc(-c2[nH]c(CNc3ccccc3F)nc2-c2ccc3ncnn3c2)n1 [VACTOSERTIB] | 0.84 | -0.43 | 0.95 | 0.58 | – | – | – | – | – | – | – | – | – | – | – | – | – | -0.26 | – | – | Growth Rate (Fibroblast; 18 h, replicate number 1): 0.97
17 | CC(C)(O)c1cnc(N2C[C@@]3(CCC[C@](C)(Cn4cnc5ccc(C#N)cc54)C3)OC2=O)cn1 [GSK2798745] | – | – | -0.31 | 0.2 | 0.38 | 0.41 | 0.47 | 0.43 | 0.49 | 0.45 | 0.24 | -0.2 | 0.4 | 0.36 | – | – | – | – | -1 | – | Growth Rate (Fibroblast; 18 h, replicate number 1): -0.39
